Results reported in PubChem BioAssay (NCI).
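Compound exposure: 48 hours, 5 concentrations, 96-well plates. TGI is the concentration that stops growth completely.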

Key:
Experiment in all cases: growth of human tumour cells (NCI), 48 h
A549 NSCLC = test system: A549 NSCLC
BT-549 breast = test system: BT-549 breast
COLO 205 colon = test system: COLO 205 colon
HOP-62 NSCLC = test system: HOP-62 NSCLC
KM12 colon = test system: KM12 colon
LOX IMVI melanoma = test system: LOX IMVI melanoma
MALME-3M melanoma = test system: MALME-3M melanoma
MDA-N = test system: MDA-N
NCI-H226 lung = test system: NCI-H226 lung
NCI-H522 lung = test system: NCI-H522 lung
PC-3 prostate = test system: PC-3 prostate
RXF 393 renal = test system: RXF 393 renal
SN12C renal = test system: SN12C renal
SW-620 colon = test system: SW-620 colon
SK-OV-3 ovarian = test system: SK-OV-3 ovarian

Structure (SMILES)	TGI (A549 NSCLC)	TGI (BT-549 breast)	TGI (COLO 205 colon)	TGI (HOP-62 NSCLC)	TGI (KM12 colon)	TGI (LOX IMVI melanoma)	TGI (MALME-3M melanoma)	TGI (MDA-N)	TGI (NCI-H226 lung)	TGI (NCI-H522 lung)	TGI (PC-3 prostate)	TGI (RXF 393 renal)	TGI (SN12C renal)	TGI (SW-620 colon)	TGI (SK-OV-3 ovarian)
CC(=O)NNC(=S)/N=C\c1c(O)c2ccccc2oc1=O	> 100 µM	> 100 µM	> 100 µM	> 100 µM	> 100 µM	> 100 µM	> 100 µM	> 100 µM	> 100 µM	> 100 µM	> 100 µM	> 100 µM	> 100 µM	> 100 µM	–
C=C1C(=O)[C@]23C[C@H]1C[C@@H](O)[C@H]2[C@]1(COC3=O)[C@@H](OC(C)=O)CC[C@@](C)(COC(C)=O)[C@H]1C=O	> 50 µM	> 50 µM	16.4 µM	> 50 µM	> 50 µM	> 50 µM	27 µM	> 50 µM	19 µM	14.6 µM	> 50 µM	> 50 µM	> 50 µM	18.7 µM	–
O=C(OCC1CCCN2CCCCC12)c1cccnc1 (centres undefined)	> 100 µM	> 100 µM	> 100 µM	–	> 100 µM	> 100 µM	> 100 µM	> 100 µM	> 100 µM	–	> 100 µM	> 100 µM	> 100 µM	> 100 µM	> 100 µM
COC(=O)c1ccccc1NC(=S)NN(C)C	> 100 µM	> 100 µM	> 100 µM	–	> 100 µM	> 100 µM	> 100 µM	> 100 µM	> 100 µM	> 100 µM	> 100 µM	> 100 µM	–	> 100 µM	> 100 µM
O=C1C(C(c2ccc([N+](=O)[O-])cc2)N2CCOCC2)=C(O)C(c2ccccc2)N1c1ccccc1 (centres undefined)	> 10 µM	> 10 µM	> 10 µM	> 10 µM	> 10 µM	> 10 µM	> 10 µM	> 10 µM	> 10 µM	> 10 µM	> 10 µM	> 10 µM	> 10 µM	> 10 µM	> 10 µM
CCCc1n[nH]c(=O)n1N1C(=O)C=CC1=O	> 100 µM	> 100 µM	> 100 µM	> 100 µM	–	–	> 100 µM	> 100 µM	–	> 100 µM	> 100 µM	> 100 µM	> 100 µM	–	> 100 µM
COC(=O)[C@H]1[C@@H](O)[C@@]2(O)c3c(OC)cc(OC)cc3O[C@@]2(c2ccc3c(c2)OCO3)[C@@H]1c1ccccc1	0.5 µM	> 50 µM	0.0686 µM	0.68 µM	0.113 µM	0.014 µM	9.69 µM	2.34 µM	3.23 µM	0.741 µM	> 18 µM	–	1.46 µM	> 22.2 µM	1.54 µM
N/C(=N\NC(=O)c1nc2ccccc2s1)c1ccccn1	> 52.7 µM	> 100 µM	27.6 µM	> 57.6 µM	> 100 µM	> 100 µM	> 100 µM	> 100 µM	–	44.6 µM	> 100 µM	> 69 µM	18 µM	> 100 µM	29.5 µM
O=C(/C=C/c1ccc2c(c1)OCO2)NCCc1ccco1	> 100 µM	> 100 µM	> 100 µM	> 100 µM	> 100 µM	> 100 µM	> 100 µM	> 100 µM	> 100 µM	79.7 µM	> 100 µM	> 100 µM	> 100 µM	> 100 µM	> 100 µM
Cc1ccc(/C(O)=C/c2nc3cccnc3[nH]c2=O)cc1	> 100 µM	> 100 µM	> 100 µM	85.9 µM	> 100 µM	> 100 µM	> 100 µM	> 100 µM	> 100 µM	> 100 µM	> 100 µM	80.1 µM	> 100 µM	–	> 100 µM
Nc1nc(Nc2ccc(Cl)cc2)sc1C(=O)c1c[nH]c2ccccc12	29.5 µM	34 µM	18 µM	46.9 µM	51.1 µM	43.8 µM	31.2 µM	25.3 µM	46.1 µM	–	27.9 µM	44.1 µM	29 µM	> 100 µM	46.4 µM
Cc1ccc(S(=O)(=O)/N=C2/N(C)CCCS2(=O)=O)cc1	> 100 µM	> 100 µM	> 100 µM	> 100 µM	> 100 µM	> 100 µM	–	> 100 µM	> 100 µM	> 100 µM	> 100 µM	> 100 µM	> 100 µM	> 100 µM	> 100 µM
COCCOC(C)C(=O)C(O)S(=O)(=O)O (centres undefined)	> 100 µM	> 100 µM	> 100 µM	> 100 µM	> 100 µM	–	> 100 µM	> 100 µM	> 100 µM	> 100 µM	> 100 µM	> 100 µM	> 100 µM	> 100 µM	> 100 µM
